Laboratory results published in the supplement of paper PMC12463676, “Small-molecule dissolution of stress granules by redox modulation benefits ALS models” (Nature Chemical Biology, 2025).

Compound: NC(=O)CCCCC1CCSS1 [lipoamide]
Assay: thermal stability z-score vs DMSO; higher = more thermally stabilized by treatment
Conditions: HeLa; lipoamide concentration 100 µM; arsenate co-treatment: 1 mM arsenate 1 h
Experimental: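 Cellular thermal proteome profiling in HeLa cells. Cells were treated with 100 µM lipoamide for 1 h, with or without 1 mM arsenate for a further 1 h, then heated to ten temperatures (37-66.3 °C), and soluble protein was quantified by TMT mass spectrometry relative to 0.1% DMSO controls. The thermal stability score (sum of log2 fold changes minus the abundance score) was transformed to a z-score; mean of n = 3 experiments.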
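Note: each temperature applied for 3 min, abundance score taken as mean log2 fold change at the two lowest temperatures, z-score obtained by mean subtraction and division by SD.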

UniProt Q9BS26, sequence (Q9BS26 whole entry): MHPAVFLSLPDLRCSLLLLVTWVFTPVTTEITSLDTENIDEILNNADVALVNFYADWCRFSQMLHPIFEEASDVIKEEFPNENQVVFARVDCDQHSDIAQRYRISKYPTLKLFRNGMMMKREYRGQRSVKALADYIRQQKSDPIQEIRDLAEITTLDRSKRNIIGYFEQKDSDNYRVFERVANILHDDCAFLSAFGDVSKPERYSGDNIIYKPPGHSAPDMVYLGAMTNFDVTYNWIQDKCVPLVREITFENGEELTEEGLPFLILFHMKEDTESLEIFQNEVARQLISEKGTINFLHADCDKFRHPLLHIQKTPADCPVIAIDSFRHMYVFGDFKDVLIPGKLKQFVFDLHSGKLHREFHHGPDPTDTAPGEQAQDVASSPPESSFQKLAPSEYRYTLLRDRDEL
UniProt Q8N5U6, sequence (Q8N5U6 whole entry): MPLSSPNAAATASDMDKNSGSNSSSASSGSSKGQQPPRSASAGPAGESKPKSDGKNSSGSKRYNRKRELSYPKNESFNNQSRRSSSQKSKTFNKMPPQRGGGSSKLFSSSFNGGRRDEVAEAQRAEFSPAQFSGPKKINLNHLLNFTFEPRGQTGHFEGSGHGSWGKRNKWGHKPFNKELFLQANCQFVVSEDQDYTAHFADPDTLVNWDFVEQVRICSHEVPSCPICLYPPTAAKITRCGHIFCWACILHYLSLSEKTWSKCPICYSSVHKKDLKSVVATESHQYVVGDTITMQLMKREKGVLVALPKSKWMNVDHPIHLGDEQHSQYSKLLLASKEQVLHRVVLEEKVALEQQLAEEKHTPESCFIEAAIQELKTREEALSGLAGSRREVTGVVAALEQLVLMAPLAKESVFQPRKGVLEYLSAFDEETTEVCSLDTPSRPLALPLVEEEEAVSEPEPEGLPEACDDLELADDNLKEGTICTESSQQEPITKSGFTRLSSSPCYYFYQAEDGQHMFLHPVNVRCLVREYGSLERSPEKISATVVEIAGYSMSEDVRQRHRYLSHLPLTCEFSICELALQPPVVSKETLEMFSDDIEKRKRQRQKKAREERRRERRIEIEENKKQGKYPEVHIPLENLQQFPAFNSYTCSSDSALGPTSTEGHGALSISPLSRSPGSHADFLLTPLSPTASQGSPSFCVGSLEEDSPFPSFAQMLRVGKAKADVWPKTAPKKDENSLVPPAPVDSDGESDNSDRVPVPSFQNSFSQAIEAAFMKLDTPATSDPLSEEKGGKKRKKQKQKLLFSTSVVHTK
UniProt Q14674, sequence (Q14674 whole entry): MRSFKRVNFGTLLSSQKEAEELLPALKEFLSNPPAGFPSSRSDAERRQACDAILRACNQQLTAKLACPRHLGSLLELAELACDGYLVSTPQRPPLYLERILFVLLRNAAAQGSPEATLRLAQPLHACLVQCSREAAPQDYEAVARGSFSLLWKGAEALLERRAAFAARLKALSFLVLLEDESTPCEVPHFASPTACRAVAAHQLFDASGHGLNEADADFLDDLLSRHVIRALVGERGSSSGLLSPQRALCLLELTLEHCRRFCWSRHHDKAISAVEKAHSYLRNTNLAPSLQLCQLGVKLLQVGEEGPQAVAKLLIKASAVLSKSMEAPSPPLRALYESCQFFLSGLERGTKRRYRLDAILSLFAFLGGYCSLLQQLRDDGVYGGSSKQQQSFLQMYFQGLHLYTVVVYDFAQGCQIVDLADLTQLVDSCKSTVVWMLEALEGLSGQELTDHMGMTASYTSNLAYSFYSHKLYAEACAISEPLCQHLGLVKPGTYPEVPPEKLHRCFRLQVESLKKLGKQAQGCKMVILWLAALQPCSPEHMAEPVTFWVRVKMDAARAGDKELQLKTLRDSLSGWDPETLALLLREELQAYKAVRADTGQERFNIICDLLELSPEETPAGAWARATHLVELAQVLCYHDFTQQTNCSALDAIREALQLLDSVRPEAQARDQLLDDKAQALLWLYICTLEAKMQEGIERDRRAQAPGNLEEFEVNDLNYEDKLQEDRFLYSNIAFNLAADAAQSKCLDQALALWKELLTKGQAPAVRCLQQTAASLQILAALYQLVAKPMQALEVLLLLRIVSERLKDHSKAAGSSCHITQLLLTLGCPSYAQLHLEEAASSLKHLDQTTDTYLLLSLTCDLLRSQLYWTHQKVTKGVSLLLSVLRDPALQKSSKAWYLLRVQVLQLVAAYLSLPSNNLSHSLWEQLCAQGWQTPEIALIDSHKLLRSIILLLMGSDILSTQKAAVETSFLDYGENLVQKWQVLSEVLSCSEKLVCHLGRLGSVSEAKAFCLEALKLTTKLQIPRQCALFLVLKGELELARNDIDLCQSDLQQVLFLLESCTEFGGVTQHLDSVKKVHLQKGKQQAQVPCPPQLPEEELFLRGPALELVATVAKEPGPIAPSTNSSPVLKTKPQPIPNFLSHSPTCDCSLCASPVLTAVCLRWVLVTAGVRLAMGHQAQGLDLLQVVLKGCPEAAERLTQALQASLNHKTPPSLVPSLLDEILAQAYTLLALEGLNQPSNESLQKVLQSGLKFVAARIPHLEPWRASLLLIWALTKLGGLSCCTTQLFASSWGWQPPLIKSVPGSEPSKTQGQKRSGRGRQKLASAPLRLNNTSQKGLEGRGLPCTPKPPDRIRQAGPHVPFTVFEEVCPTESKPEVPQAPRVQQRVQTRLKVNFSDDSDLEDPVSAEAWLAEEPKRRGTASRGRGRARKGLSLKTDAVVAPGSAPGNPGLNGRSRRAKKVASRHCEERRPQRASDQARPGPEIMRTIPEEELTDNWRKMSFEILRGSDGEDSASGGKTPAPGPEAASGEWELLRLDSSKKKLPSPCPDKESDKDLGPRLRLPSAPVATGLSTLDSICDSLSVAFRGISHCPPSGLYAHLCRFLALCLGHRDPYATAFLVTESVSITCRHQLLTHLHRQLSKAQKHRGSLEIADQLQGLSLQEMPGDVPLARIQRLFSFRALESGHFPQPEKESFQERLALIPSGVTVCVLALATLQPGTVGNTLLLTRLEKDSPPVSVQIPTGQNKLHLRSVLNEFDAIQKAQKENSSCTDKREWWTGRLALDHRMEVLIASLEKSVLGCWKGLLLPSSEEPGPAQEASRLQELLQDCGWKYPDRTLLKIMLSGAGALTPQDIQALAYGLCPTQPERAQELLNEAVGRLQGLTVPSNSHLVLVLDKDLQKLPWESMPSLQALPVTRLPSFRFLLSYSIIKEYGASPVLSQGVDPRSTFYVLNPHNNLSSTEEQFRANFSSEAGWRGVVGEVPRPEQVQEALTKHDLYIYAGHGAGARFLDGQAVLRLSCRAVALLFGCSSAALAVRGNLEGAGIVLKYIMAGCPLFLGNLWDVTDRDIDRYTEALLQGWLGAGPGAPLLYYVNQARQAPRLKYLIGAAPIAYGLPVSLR
UniProt Q92796, sequence (Q92796 whole entry): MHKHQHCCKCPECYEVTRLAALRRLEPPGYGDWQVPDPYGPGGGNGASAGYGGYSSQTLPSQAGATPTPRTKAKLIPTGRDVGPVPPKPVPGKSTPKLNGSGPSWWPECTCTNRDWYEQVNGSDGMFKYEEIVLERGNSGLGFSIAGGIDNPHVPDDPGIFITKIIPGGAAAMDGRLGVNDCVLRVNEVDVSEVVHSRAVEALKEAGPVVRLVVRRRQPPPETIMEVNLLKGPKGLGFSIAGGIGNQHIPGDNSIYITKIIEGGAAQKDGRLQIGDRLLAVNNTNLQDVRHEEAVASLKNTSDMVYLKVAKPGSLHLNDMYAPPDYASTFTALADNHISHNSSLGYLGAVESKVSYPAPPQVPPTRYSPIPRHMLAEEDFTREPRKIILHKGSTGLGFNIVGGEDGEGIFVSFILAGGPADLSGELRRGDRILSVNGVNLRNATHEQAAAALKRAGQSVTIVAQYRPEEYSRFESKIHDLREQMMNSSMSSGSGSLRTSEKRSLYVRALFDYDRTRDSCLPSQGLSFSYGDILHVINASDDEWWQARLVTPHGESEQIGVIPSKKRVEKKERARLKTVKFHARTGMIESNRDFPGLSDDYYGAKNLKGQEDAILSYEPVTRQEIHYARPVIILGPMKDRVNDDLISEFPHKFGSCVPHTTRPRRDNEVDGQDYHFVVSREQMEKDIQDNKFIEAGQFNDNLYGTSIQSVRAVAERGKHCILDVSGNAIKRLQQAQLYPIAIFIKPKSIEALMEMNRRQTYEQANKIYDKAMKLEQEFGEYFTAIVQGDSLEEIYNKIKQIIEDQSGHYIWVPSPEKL
UniProt Q86W56, sequence (Q86W56 whole entry, looked up): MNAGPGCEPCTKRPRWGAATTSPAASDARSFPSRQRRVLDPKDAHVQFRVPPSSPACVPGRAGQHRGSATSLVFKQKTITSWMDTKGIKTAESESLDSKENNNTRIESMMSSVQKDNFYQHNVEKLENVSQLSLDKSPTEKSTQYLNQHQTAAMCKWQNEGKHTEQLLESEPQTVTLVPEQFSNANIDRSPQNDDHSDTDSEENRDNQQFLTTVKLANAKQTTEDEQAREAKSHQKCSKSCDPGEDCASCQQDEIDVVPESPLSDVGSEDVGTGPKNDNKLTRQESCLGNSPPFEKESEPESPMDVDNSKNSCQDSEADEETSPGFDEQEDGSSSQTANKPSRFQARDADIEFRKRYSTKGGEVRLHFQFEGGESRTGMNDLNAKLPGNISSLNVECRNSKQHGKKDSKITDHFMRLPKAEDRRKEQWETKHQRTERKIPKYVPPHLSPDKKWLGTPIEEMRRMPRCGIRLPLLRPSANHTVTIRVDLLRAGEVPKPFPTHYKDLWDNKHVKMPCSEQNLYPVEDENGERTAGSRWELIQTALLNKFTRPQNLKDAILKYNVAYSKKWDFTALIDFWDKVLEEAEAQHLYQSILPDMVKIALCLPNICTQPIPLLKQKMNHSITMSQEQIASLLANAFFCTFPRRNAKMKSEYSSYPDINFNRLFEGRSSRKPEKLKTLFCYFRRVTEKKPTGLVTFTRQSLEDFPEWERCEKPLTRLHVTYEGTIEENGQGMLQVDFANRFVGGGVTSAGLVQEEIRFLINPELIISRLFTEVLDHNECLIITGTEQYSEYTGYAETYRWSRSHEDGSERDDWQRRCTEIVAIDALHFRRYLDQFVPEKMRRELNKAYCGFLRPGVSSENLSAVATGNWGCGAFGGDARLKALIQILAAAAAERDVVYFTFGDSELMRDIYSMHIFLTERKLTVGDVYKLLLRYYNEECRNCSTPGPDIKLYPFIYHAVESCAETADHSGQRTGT

Target	thermal stability z-score
IMPDH2 (UniProt P12268)	-0.759
IPO7 (UniProt O95373)	2.63
PRDX4 (UniProt Q13162)	0.155
NAPG (UniProt Q99747)	-0.212
IWS1 (UniProt Q96ST2)	-0.094
RBM10	3.5
ARHGAP4 (UniProt P98171)	-0.00218
SRPK1 (UniProt Q96SB4)	0.669
RNF10 (UniProt Q8N5U6)	-0.0188
BCAR3 (UniProt O75815)	-0.0123
CASK (UniProt O14936)	0.388
IBA57 (UniProt Q5T440)	-0.0611
PROCR (UniProt Q9UNN8)	1.19
HAUS2 (UniProt Q9NVX0)	-0.143
DDT (UniProt P30046)	-0.198
EIF2D (UniProt P41214)	-1.12
EDEM1 (UniProt Q92611)	-0.0592
SNRNP40 (UniProt Q96DI7)	0.383
LAS1L (UniProt Q9Y4W2)	-0.0675
TRNT1 (UniProt Q96Q11)	0.00685
DIMT1 (UniProt Q9UNQ2)	0.142
BCOR (UniProt Q6W2J9)	0.0203
MRM3 (UniProt Q9HC36)	-0.128
RSBN1L (UniProt Q6PCB5)	-0.0324

Target	thermal stability z-score
TIMP1 (UniProt P01033)	-0.407
MRPL14 (UniProt Q6P1L8)	-0.566
PRPF8 (UniProt Q6P2Q9)	-0.186
DDX17 (UniProt Q92841)	0.121
PARG (UniProt Q86W56)	-0.123
EIF3A (UniProt Q14152)	0.713
NCKAP1 (UniProt Q9Y2A7)	0.0716
ERP44 (UniProt Q9BS26)	-2.86
UniProt H0YIV9|GATC	-0.219
PEG10 (UniProt Q86TG7)	-0.289
SLC7A2 (UniProt P52569)	0.412
UHRF1BP1L (UniProt A0JNW5)	-0.0289
MRRF (UniProt Q96E11)	0.298
HMGN2 (UniProt P05204)	1.04
IGHMBP2 (UniProt P38935)	0.0798
SHC1 (UniProt P29353)	-0.383
ESPL1 (UniProt Q14674)	0.424
VDAC1 (UniProt P21796)	0.311
ZNF706 (UniProt Q9Y5V0)	1.04
DLG3 (UniProt Q92796)	-0.116
TXNRD2 (UniProt Q9NNW7)	0.179
SNRPA (UniProt P09012)	0.0421
POLR3E (UniProt Q9NVU0)	0.0246
POLD1 (UniProt P28340)	0.0404

Target	thermal stability z-score
TMEM97 (UniProt Q5BJF2)	0.385
RPL23 (UniProt P62829)	0.548
SRSF6 (UniProt Q13247)	1.75
ANXA2 (UniProt P07355)	1.59
UBE3B (UniProt Q7Z3V4)	-0.0453
HEATR3 (UniProt Q7Z4Q2)	-0.189
GTF2E2 (UniProt P29084)	-0.693
ELAC2 (UniProt Q9BQ52)	-0.243
PYCRL (UniProt Q53H96)	0.827
SPC24 (UniProt Q8NBT2)	-0.122
EOGT (UniProt Q5NDL2)	-1.18
UGDH (UniProt O60701)	-0.0997
DLG5 (UniProt Q8TDM6)	0.227
RPSA (UniProt P08865)	0.555
PRDX6 (UniProt P30041)	0.00439
C19ORF70|MIC13	0.265
RBM14 (UniProt Q96PK6)	-0.169
GFER (UniProt P55789)	0.239
HSD17B10 (UniProt Q99714)	0.921
RCN3 (UniProt Q96D15)	-0.715
RTN4RL2 (UniProt Q86UN3)	-1.87
ACACA (UniProt Q13085)	-0.534
FKBP7 (UniProt Q9Y680)	-4.17
ESRP2 (UniProt Q9H6T0)	-0.121

Same assay, conditions: HeLa; lipoamide concentration 100 µM; arsenate co-treatment: none

Target	thermal stability z-score
IMPDH2 (UniProt P12268)	-0.205
IPO7 (UniProt O95373)	0.4
PRDX4 (UniProt Q13162)	0.76
NAPG (UniProt Q99747)	-0.012
IWS1 (UniProt Q96ST2)	0.636
RBM10	2.13
ARHGAP4 (UniProt P98171)	0.000585
SRPK1 (UniProt Q96SB4)	-0.433
RNF10 (UniProt Q8N5U6)	-0.286
BCAR3 (UniProt O75815)	-0.0689
CASK (UniProt O14936)	0.281
IBA57 (UniProt Q5T440)	0.155
PROCR (UniProt Q9UNN8)	0.359
HAUS2 (UniProt Q9NVX0)	-0.261
DDT (UniProt P30046)	0.134
EIF2D (UniProt P41214)	-0.337
EDEM1 (UniProt Q92611)	-0.0491
SNRNP40 (UniProt Q96DI7)	-0.0333
LAS1L (UniProt Q9Y4W2)	-0.132
TRNT1 (UniProt Q96Q11)	-0.189
DIMT1 (UniProt Q9UNQ2)	0.0753
BCOR (UniProt Q6W2J9)	0.0502
MRM3 (UniProt Q9HC36)	-0.165
RSBN1L (UniProt Q6PCB5)	-0.225

Target	thermal stability z-score
TIMP1 (UniProt P01033)	-1.02
MRPL14 (UniProt Q6P1L8)	0.0684
PRPF8 (UniProt Q6P2Q9)	-0.395
DDX17 (UniProt Q92841)	0.424
PARG (UniProt Q86W56)	0.257
EIF3A (UniProt Q14152)	0.446
NCKAP1 (UniProt Q9Y2A7)	0.602
ERP44 (UniProt Q9BS26)	-2.35
UniProt H0YIV9|GATC	-0.277
PEG10 (UniProt Q86TG7)	-0.464
SLC7A2 (UniProt P52569)	-0.0842
UHRF1BP1L (UniProt A0JNW5)	-0.329
MRRF (UniProt Q96E11)	0.823
HMGN2 (UniProt P05204)	0.752
IGHMBP2 (UniProt P38935)	0.0388
SHC1 (UniProt P29353)	0.739
ESPL1 (UniProt Q14674)	-0.509
VDAC1 (UniProt P21796)	0.385
ZNF706 (UniProt Q9Y5V0)	0.371
DLG3 (UniProt Q92796)	0.02
TXNRD2 (UniProt Q9NNW7)	0.166
SNRPA (UniProt P09012)	-0.126
POLR3E (UniProt Q9NVU0)	0.108
POLD1 (UniProt P28340)	-0.203

Target	thermal stability z-score
TMEM97 (UniProt Q5BJF2)	0.189
RPL23 (UniProt P62829)	-0.122
SRSF6 (UniProt Q13247)	1.04
ANXA2 (UniProt P07355)	1.79
UBE3B (UniProt Q7Z3V4)	-0.155
HEATR3 (UniProt Q7Z4Q2)	0.0325
GTF2E2 (UniProt P29084)	-0.556
ELAC2 (UniProt Q9BQ52)	-0.21
PYCRL (UniProt Q53H96)	0.862
SPC24 (UniProt Q8NBT2)	0.106
EOGT (UniProt Q5NDL2)	-0.664
UGDH (UniProt O60701)	0.267
DLG5 (UniProt Q8TDM6)	-0.0304
RPSA (UniProt P08865)	0.847
PRDX6 (UniProt P30041)	0.281
C19ORF70|MIC13	0.131
RBM14 (UniProt Q96PK6)	-0.0944
GFER (UniProt P55789)	0.231
HSD17B10 (UniProt Q99714)	0.151
RCN3 (UniProt Q96D15)	-0.986
RTN4RL2 (UniProt Q86UN3)	-1.25
ACACA (UniProt Q13085)	-0.289
FKBP7 (UniProt Q9Y680)	-4.05
ESRP2 (UniProt Q9H6T0)	0.00175

Compound: O=[As]([O-])(O)O.[K+] [potassium arsenate]
Assay: as above
Conditions: HeLa; arsenate concentration 1 mM
Experimental: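 Cellular thermal proteome profiling in HeLa cells treated with 1 mM arsenate for 1 h (DMSO pretreatment), heated to ten temperatures (37-66.3 °C). Soluble protein was quantified by TMT mass spectrometry relative to DMSO controls; the thermal stability score was transformed to a z-score; mean of n = 3 experiments.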

Target	thermal stability z-score
IMPDH2 (UniProt P12268)	1.25
IPO7 (UniProt O95373)	-0.418
PRDX4 (UniProt Q13162)	0.674
NAPG (UniProt Q99747)	0.0503
IWS1 (UniProt Q96ST2)	0.949
RBM10	1.25
ARHGAP4 (UniProt P98171)	0.0513
SRPK1 (UniProt Q96SB4)	0.291
RNF10 (UniProt Q8N5U6)	-0.23
BCAR3 (UniProt O75815)	-0.106
CASK (UniProt O14936)	-0.0604
IBA57 (UniProt Q5T440)	-0.431
PROCR (UniProt Q9UNN8)	1.04
HAUS2 (UniProt Q9NVX0)	0.0695
DDT (UniProt P30046)	0.0872
EIF2D (UniProt P41214)	-1.22
EDEM1 (UniProt Q92611)	0.0795
SNRNP40 (UniProt Q96DI7)	-0.213
LAS1L (UniProt Q9Y4W2)	-0.116
TRNT1 (UniProt Q96Q11)	-0.174
DIMT1 (UniProt Q9UNQ2)	-0.418
BCOR (UniProt Q6W2J9)	-0.011
MRM3 (UniProt Q9HC36)	-0.218
RSBN1L (UniProt Q6PCB5)	0.113

Target	thermal stability z-score
TIMP1 (UniProt P01033)	-0.272
MRPL14 (UniProt Q6P1L8)	1.59
PRPF8 (UniProt Q6P2Q9)	-0.418
DDX17 (UniProt Q92841)	-0.776
PARG (UniProt Q86W56)	0.0362
EIF3A (UniProt Q14152)	0.432
NCKAP1 (UniProt Q9Y2A7)	-0.938
ERP44 (UniProt Q9BS26)	0.885
UniProt H0YIV9|GATC	-0.0937
PEG10 (UniProt Q86TG7)	-0.109
SLC7A2 (UniProt P52569)	0.647
UHRF1BP1L (UniProt A0JNW5)	-0.53
MRRF (UniProt Q96E11)	0.97
HMGN2 (UniProt P05204)	0.0894
IGHMBP2 (UniProt P38935)	-0.187
SHC1 (UniProt P29353)	0.126
ESPL1 (UniProt Q14674)	1.94
VDAC1 (UniProt P21796)	0.905
ZNF706 (UniProt Q9Y5V0)	0.0846
DLG3 (UniProt Q92796)	-0.395
TXNRD2 (UniProt Q9NNW7)	4.89
SNRPA (UniProt P09012)	0.938
POLR3E (UniProt Q9NVU0)	-0.126
POLD1 (UniProt P28340)	-0.1

Target	thermal stability z-score
TMEM97 (UniProt Q5BJF2)	0.108
RPL23 (UniProt P62829)	-0.839
SRSF6 (UniProt Q13247)	-0.598
ANXA2 (UniProt P07355)	0.066
UBE3B (UniProt Q7Z3V4)	-0.212
HEATR3 (UniProt Q7Z4Q2)	0.285
GTF2E2 (UniProt P29084)	0.0275
ELAC2 (UniProt Q9BQ52)	-0.274
PYCRL (UniProt Q53H96)	0.43
SPC24 (UniProt Q8NBT2)	-0.0105
EOGT (UniProt Q5NDL2)	0.0751
UGDH (UniProt O60701)	1.03
DLG5 (UniProt Q8TDM6)	0.0056
RPSA (UniProt P08865)	-1.42
PRDX6 (UniProt P30041)	0.144
C19ORF70|MIC13	0.22
RBM14 (UniProt Q96PK6)	-0.803
GFER (UniProt P55789)	0.816
HSD17B10 (UniProt Q99714)	-1.29
RCN3 (UniProt Q96D15)	-0.0957
RTN4RL2 (UniProt Q86UN3)	0.417
ACACA (UniProt Q13085)	0.153
FKBP7 (UniProt Q9Y680)	-0.253
ESRP2 (UniProt Q9H6T0)	0.0815
